Results published in US8008329B2 (Dong Wha Pharmaceutical Co., Ltd., priority 2008, dated 2011).
Marks after values point to notes of the source that are not given here.

System: osteoclast differentiation
Test: Osteoclast differentiation in co-culture of mouse bone marrow cells and ST2 cells, TRAP staining (Examples 8-9)
Type: cell-based
Settings: for % number of osteoclast (vs. solvent control group): 0.1 μM each, day 7; for activity at 0.1 µM: Mus musculus, Osteoclast, 168 h, Individual treatment (compounds), day 7, read-out: % number of osteoclast (vs. solvent control group)
Procedure, shortened: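 Bone marrow cells from 6-8-week male ddY mice were co-cultured with ST2 stromal cells under 10^−8 M vitamin D3 and 10^−8 M dexamethasone, with compounds at 0.1 μM final (0.1% DMSO control), refreshed on days 3 and 5. On day 7, TRAP-positive osteoclasts with ≥6 nuclei were counted and expressed as % of solvent control (n=4).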

[1] = Combination treatment (alendronic acid + compounds)
[2] = Combination treatment (risedronic acid + compounds)

In the case of `CCc1sc(N(C)Cc2cccnc2)nc1-c1ccc(OCCCCCOc2ccc(C(=N)NO)cc2)cc1` [Compound 134, N-hydroxy-4-[5-(4-{5-ethyl-2-[methyl-(pyridin-3-ylmethyl)amino]-1,3-thiazol-4-yl}phenoxy)pentyloxy]-benzamidine], the “% number of osteoclast (vs. solvent control group)” value (shortened to “% number of osteoclast”) [1] is reported as 39 ± 3.4^ab %, the “% number of osteoclast” value [2] is reported as 24 ± 4.0^ac % and the activity at 0.1 µM is reported as 57 ± 4.3%.

For `CCc1sc(N(Cc2cccnc2)Cc2cccnc2)nc1-c1ccc(OCCCCCOc2ccc(C(=N)NO)cc2)cc1` [Compound 137, N-hydroxy-4-[5-(4-{2-[bis-(pyridin-3-ylmethyl)amino]-5-ethyl-1,3-thiazol-4-yl}phenoxy)pentyloxy]-benzamidine], the “% number of osteoclast” value [1] was 11 ± 4.3^b %, the “% number of osteoclast” value [2] was 7 ± 2.2^ac % and the activity at 0.1 µM was 19 ± 2.9%.

For `CCc1sc(N(CCO)CCO)nc1-c1ccc(OCCCCCOc2ccc(C(=N)NO)cc2)cc1` [Compound 139, N-hydroxy-4-[5-(4-{2-[bis-(2-hydroxyethyl)amino]-5-ethyl-1,3-thiazol-4-yl}phenoxy)pentyloxy]-benzamidine], the “% number of osteoclast” value [1] was 49 ± 7.8%, the “% number of osteoclast” value [2] was 38 ± 6.9^ac % and the activity at 0.1 µM was 64 ± 4.6%.

`CC(C)c1sc(N(C)Cc2cccnc2)nc1-c1ccc(OCCCCCOc2ccc(C(=N)NO)cc2)cc1` [Compound 141, N-hydroxy-4-[5-(4-{5-isopropyl-2-[methyl-(pyridin-3-ylmethyl)amino]-1,3-thiazol-4-yl}phenoxy)pentyloxy]-benzamidine] was tested, and the “% number of osteoclast” value [1] was 65 ± 2.8%, the “% number of osteoclast” value [2] was 60 ± 7.5^ac % and the activity at 0.1 µM was 84 ± 8.8%.

`CCCCc1sc(N(C)CCN2CCOCC2)nc1-c1ccc(OCCCCCOc2ccc(C(=N)NO)cc2)cc1` [Compound 144, N-hydroxy-4-[5-(4-{5-butyl-2-[methyl-(2-morpholinoethyl)amino]-1,3-thiazol-4-yl}phenoxy)pentyloxy]-benzamidine] was tested, and the “% number of osteoclast” value [1] was 44 ± 10.5^ab %, the “% number of osteoclast” value [2] was 37 ± 4.3^ac % and the activity at 0.1 µM was 82 ± 6.7%.

`CCCCc1sc(N(CCC)CCC)nc1-c1ccc(OCCCCCOc2ccc(C(=N)NO)cc2)cc1` [Compound 146, N-hydroxy-4-{5-[4-(5-butyl-2-dipropylamino-1,3-thiazol-4-yl)phenoxy]pentyloxy}-benzamidine] was tested, and the “% number of osteoclast” value [1] was 79 ± 7.8%, the “% number of osteoclast” value [2] was 60 ± 13.6^c % and the activity at 0.1 µM was 81 ± 8.9%.

With `CN(Cc1cccnc1)c1nc(-c2ccc(OCCCCCOc3ccc(C(=N)NO)cc3)cc2)c(CC2CCCC2)s1` [Compound 147, N-hydroxy-4-[5-(4-{5-cyclopentylmethyl-2-[methyl-(pyridin-3-ylmethyl)amino]-1,3-thiazol-4-yl}phenoxy)pentyloxy]-benzamidine] the “% number of osteoclast” value [1] was 31 ± 3.2^ab %, the “% number of osteoclast” value [2] was 14 ± 3.0^ac % and the activity at 0.1 µM was 46 ± 4.1%.

With `CN(CCN1CCOCC1)c1nc(-c2ccc(OCCCCCOc3ccc(C(=N)NO)cc3)cc2)c(CC2CCCC2)s1` [Compound 148, N-hydroxy-4-[5-(4-{5-cyclopentylmethyl-2-[methyl-(2-morpholinoethyl)amino]-1,3-thiazol-4-yl}phenoxy)pentyloxy]-benzamidine] the “% number of osteoclast” value [1] was 33 ± 8.3^ab %, the “% number of osteoclast” value [2] was 19 ± 2.4^a % and the activity at 0.1 µM was 65 ± 4.3%.

In the case of `CCCN(CCC)c1nc(-c2ccc(OCCCCCOc3ccc(C(=N)NO)cc3)cc2)c(CC2CCCC2)s1` [Compound 149, N-hydroxy-4-{5-[4-(5-cyclopentylmethyl-2-dipropylamino-1,3-thiazol-4-yl)phenoxy]pentyloxy}-benzamidine], the “% number of osteoclast” value [1] is reported as 40 ± 8.8%, the “% number of osteoclast” value [2] is reported as 31 ± 2.5^ac % and the activity at 0.1 µM is reported as 63 ± 9.9%.

`CCCCc1sc(N(C)C)nc1-c1ccc(OCCCCCOc2ccc(C(=N)NO)cc2)cc1` [Compound 152, N-hydroxy-4-{5-[4-(5-butyl-2-dimethylamino-1,3-thiazol-4-yl)phenoxy]pentyloxy}-benzamidine] was tested, and the “% number of osteoclast” value [1] was 46 ± 8.8^b %, the “% number of osteoclast” value [2] was 48 ± 4.9^ac % and the activity at 0.1 µM was 65 ± 2.2%.

For `CN(CCN1CCOCC1)c1nc(-c2ccc(OCCCCCOc3ccc(C(=N)NO)cc3)cc2)c(C2CCCC2)s1` [Compound 153, N-hydroxy-4-[5-(4-{5-cyclopentyl-2-[methyl-(2-morpholinoethyl)amino]-1,3-thiazol-4-yl}phenoxy)pentyloxy]-benzamidine], the “% number of osteoclast” value [1] was 27 ± 3.5^ab %, the “% number of osteoclast” value [2] was 22 ± 4.5^ac % and the activity at 0.1 µM was 55 ± 3.1%.

For `CCCN(CCC)c1nc(-c2ccc(OCCCCCOc3ccc(C(=N)NO)cc3)cc2)c(C(C)C)s1` [Compound 157, N-hydroxy-4-{5-[4-(5-isopropyl-2-dipropylamino-1,3-thiazol-4-yl)phenoxy]pentyloxy}-benzamidine], the “% number of osteoclast” value [1] was 39 ± 8.3^ab %, the “% number of osteoclast” value [2] was 36 ± 15.1^ac % and the activity at 0.1 µM was 78 ± 13.5%.

With `CC(C)c1sc(N(C)C)nc1-c1ccc(OCCCCCOc2ccc(C(=N)NO)cc2)cc1` [Compound 161, N-hydroxy-4-{5-[4-(5-isopropyl-2-dimethylamino-1,3-thiazol-4-yl)phenoxy]pentyloxy}-benzamidine] the “% number of osteoclast” value [1] was 56 ± 4.3^ab %, the “% number of osteoclast” value [2] was 47 ± 14.0^a % and the activity at 0.1 µM was 79 ± 5.1%.

For `CCN(CC)c1nc(-c2ccc(OCCCCCOc3ccc(C(=N)NO)cc3)cc2)c(C(C)C)s1` [Compound 162, N-hydroxy-4-{5-[4-(5-isopropyl-2-diethylamino-1,3-thiazol-4-yl)phenoxy]pentyloxy}-benzamidine], the “% number of osteoclast” value [1] was 78 ± 1.8%, the “% number of osteoclast” value [2] was 61 ± 7.5^ac % and the activity at 0.1 µM was 98 ± 8.2%.

In the case of `CN(C)c1nc(-c2ccc(OCCCCCOc3ccc(C(=N)NO)cc3)cc2)c(CC2CCCC2)s1` [Compound 163, N-hydroxy-4-{5-[4-(5-cyclopentylmethyl-2-dimethylamino-1,3-thiazol-4-yl)phenoxy]pentyloxy}-benzamidine], the “% number of osteoclast” value [1] is reported as 55 ± 7.6%, the “% number of osteoclast” value [2] is reported as 41 ± 7.3^ac % and the activity at 0.1 µM is reported as 65 ± 8.8%.

With `Cc1sc(N2CCOCC2)nc1-c1ccc(OCCCCCOc2ccc(C(=N)NO)cc2)cc1` [Compound 165, N-hydroxy-4-{5-[4-(5-methyl-2-morpholino-1,3-thiazol-4-yl)phenoxy]pentyloxy}-benzamidine] the “% number of osteoclast” value [1] was 29 ± 7.5^ab %, the “% number of osteoclast” value [2] was 30 ± 3.1^ac % and the activity at 0.1 µM was 75 ± 3.8%.
